“Also recorded” adds a separate entry of the source.
What was measured:
[1] = molecular target: T1, full-length recombinant rat vitamin D receptor (Rattus norvegicus, UniProt P13053); test: Vitamin D receptor binding (competition with [3H]-1,25-(OH)2-D3)
T1 construct: Full-length recombinant rat receptor was expressed in E. coli BL21 (DE3) Codon Plus RIL cells; histidine tag (C); made in house; host or cells: E. coli BL21 (DE3) Codon Plus RIL
T1 sequence (P13053 1-423): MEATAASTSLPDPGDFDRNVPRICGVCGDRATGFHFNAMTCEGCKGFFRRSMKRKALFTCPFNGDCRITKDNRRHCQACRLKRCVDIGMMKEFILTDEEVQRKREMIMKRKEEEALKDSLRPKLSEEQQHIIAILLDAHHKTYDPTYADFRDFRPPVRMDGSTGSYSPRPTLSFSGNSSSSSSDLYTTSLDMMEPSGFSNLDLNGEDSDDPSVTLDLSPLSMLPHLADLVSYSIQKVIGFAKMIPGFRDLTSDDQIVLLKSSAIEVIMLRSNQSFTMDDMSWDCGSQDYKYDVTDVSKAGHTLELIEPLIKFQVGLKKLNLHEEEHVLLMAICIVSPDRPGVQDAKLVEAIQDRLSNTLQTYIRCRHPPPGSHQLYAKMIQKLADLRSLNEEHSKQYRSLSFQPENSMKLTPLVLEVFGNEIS
Protocol: Full-length recombinant rat receptor was expressed in E. coli BL21 (DE3) Codon Plus RIL cells and purified to homogeneity using two different column chromatography systems. The first system was a nickel affinity resin that utilizes the C-terminal histidine tag on this protein. The protein that was eluted from this resin was further purified using ion exchange chromatography (S-Sepharose Fast Flow). Aliquots of the purified protein were quick frozen in liquid nitrogen and stored at −80° C. until use. For use in binding assays, the protein was diluted in TEDK50 (50 mM Tris, 1.5 mM EDTA, pH7.4, 5 mM DTT, 150 mM KCl) with 0.1% Chaps detergent. The receptor protein and ligand concentration was optimized such that no more than 20% of the added radiolabeled ligand was bound to the receptor.
Radiolabeled ligand (^3H-1,25(OH)2D3, ˜159 Ci/mmole) was added in ethanol at a final concentration of 1 nM.
Radiolabeled and unlabeled ligands were added to 100 mcl of the diluted protein at a final ethanol concentration of <10%, mixed and incubated overnight on ice to reach binding equilibrium. The following day, 100 mcl of hydroxylapatite slurry (50%) was added to each tube and mixed at 10-minute intervals for 30 minutes. […] Total binding was determined from the tubes containing only radiolabeled ligand.

[2] = test system: HL-60 cells; test: HL-60 differentiation (nitro blue tetrazolium reduction); format: cell-based, human; settings: FIG. 4
Protocol: The study drugs were dissolved in ethanol and the concentrations determined using UV spectrophotometry. Serial dilutions were prepared so that a range of drug concentrations could be tested without changing the final concentration of ethanol (<0.2%) present in the cell cultures.
Human promyelocytic leukemia (HL60) cells were grown in RPMI-1640 medium containing 10% fetal bovine serum. The cells were incubated at 37° C. in the presence of 5% CO2.
HL60 cells were plated at 1.2×10^5 cells/ml. Eighteen hours after plating, cells in duplicate were treated with drug. Four days later, the cells were harvested and a nitro blue tetrazolium reduction assay was performed (Collins et al., 1979; J. Exp. Med. 149:969-974). The percentage of differentiated cells was determined by counting a total of 200 cells and recording the number that contained intracellular black-blue formazan deposits. Verification of differentiation to monocytic cells was determined by measuring phagocytic activity (data not shown).

[3] = test system: 24-hydyroxylase (24Ohase) gene promoter luciferase reporter in ROS 17/2.8 (bone) cells; test: In vitro transcription assay (24-hydroxylase promoter luciferase reporter); format: cell-based; settings: Ros17/2.8 (bone) cells
Protocol: Transcription activity was measured in ROS 17/2.8 (bone) cells that were stably transfected with a 24-hydyroxylase (24Ohase) gene promoter upstream of a luciferase reporter gene (Arbour et al., 1998). Cells were given a range of doses. Sixteen hours after dosing the cells were harvested and luciferase activities were measured using a luminometer. (RLU=relative luciferase units)

[4] = test system: Male, weanling Sprague-Dawley rats; test: Intestinal calcium transport (everted gut sac method); format: in vivo, rat; settings: four consecutive ip doses, FIG. 3
Source text: (§1) Male, weanling Sprague-Dawley rats were placed on Diet 11 (Suda et al., Purified Rodent Diet-Diet 11, containing 0.47% and 0.3% phosphorus and fat soluble vitamins A, D, E and K are provided ad libitum)(0.47% Ca) diet+AEK for one week followed by Diet 11 (0.02% Ca)+AEK for 3 weeks. The rats were then switched to a diet containing 0.47% Ca for one week followed by two weeks on a diet containing 0.02% Ca. Dose administration began during the last week on 0.02% calcium diet. Four consecutive ip doses were given approximately 24 hours apart. Twenty-four hours after the last dose, blood was collected from the severed neck and the concentration of serum calcium determined as a measure of bone calcium mobilization. The first 10 cm of the intestine was also collected for intestinal calcium transport analysis using the everted gut sac method. The everted gut sac assay was carried out as previously described by Martin and Deluca, Am. J. Physiol. 216, 1351 (1969); (DeLuca et al., U.S. Pat. No. 4,188,345), which are incorporated by reference as if fully set forth herein.
The negative control material is prepared by volumetrically measuring ethanol (<5%) and propylene glycol, mixing, and then placing in storage at 2 to 8° C.
The solution is mixed and then stored at 2 to 8° C. […]

[5] = test system: Male, weanling Sprague-Dawley rats; test: Bone calcium mobilization (serum calcium); format: in vivo, rat; settings: four consecutive ip doses, FIG. 2
Source text: as §1, with “herein. […]” for “herein.”
Twenty-four hours after the final dose, approximately 1 ml of blood is collected from the tail artery of each experimental animal. […] The level of calcium is determined by diluting the serum into 0.1% lanthum chloride and measuring the absorbance on an atomic absorption spectrophotometer (Perkin Elmer Model 3110, Shelton, Conn.).

SMILES: C=C1[C@H](O)CC(=C/C=C2\CCC[C@]3(C)[C@@H](CCCCC(C)C)CC[C@@H]23)C[C@H]1O [SY-44, 2-methylene-1α-hydroxy-19,21-dinorvitamin D3]
- binding to the recombinant vitamin D receptor, times less active when compared to 1α,25-dihydroxyvitamin D3 ([1]; competition with [3H]-1,25-(OH)2-D3, relative to 1α,25-dihydroxyvitamin D3, FIG. 1): 10 times
- binding to vitamin D receptors (in words) ([1]; summary statement): high binding to vitamin D receptors
- activity in inducing differentiation of HL-60 cells compared with 1α,25-dihydroxyvitamin D3 [2]: slightly less active; also recorded: capability to induce differentiation of HL-60 cells
- stimulating transcription of a reporter gene, times less active than 1α,25-dihydroxyvitamin D3 ([3]; stably transfected reporter, FIG. 5): 10 times
- stimulation of transcription of reporter gene (in words) ([3]; summary statement): capability to stimulate transcription of reporter gene
- intestinal calcium transport activity compared with 1α,25-dihydroxyvitamin D3 [4]: higher intestinal calcium transport activity; also recorded: high intestinal calcium transport activity
- bone calcium mobilization activity compared with 1α,25-dihydroxyvitamin D3 [5]: less bone calcium mobilization activity; also recorded: low ability to mobilize calcium from bone
